Laboratory results reported in ChEMBL document CHEMBL1201862, “PubChem BioAssay data set” (2004).
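Compound exposure: 48 hours, 5 concentrations, 96-well plates. GI50 marks 50% less growth.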 Calls of active or inactive are those of the source. Rule as the data show it: active = GI50 up to about 1.1 µM and inactive = higher.

Tests used:
Assay in all cases: inhibition of tumour cell growth, NCI panel, 48 h
SNB-19 = system: SNB-19
HCC 2998 = system: HCC 2998
HT-29 = system: HT-29
SN12C = system: SN12C
OVCAR-5 = system: OVCAR-5
Hs-578T = system: Hs-578T
COLO 205 = system: COLO 205
CCRF-CEM = system: CCRF-CEM
NCI/ADR-RES = system: NCI/ADR-RES
MDA-N = system: MDA-N
UO-31 = system: UO-31
SW-620 = system: SW-620
RXF 393 = system: RXF 393
HOP-92 = system: HOP-92
HOP-62 = system: HOP-62
SK-MEL-5 = system: SK-MEL-5
KM12 = system: KM12
M14 = system: M14
Malme-3M = system: Malme-3M

| SMILES | GI50 (SNB-19) | GI50 (HCC 2998) | GI50 (HT-29) | GI50 (SN12C) | GI50 (OVCAR-5) | GI50 (Hs-578T) | GI50 (COLO 205) | GI50 (CCRF-CEM) | GI50 (NCI/ADR-RES) | GI50 (MDA-N) | GI50 (UO-31) | GI50 (SW-620) | GI50 (RXF 393) | GI50 (HOP-92) | GI50 (HOP-62) | GI50 (SK-MEL-5) | GI50 (KM12) | GI50 (M14) | GI50 (Malme-3M) |
| --- | --- | --- | --- | --- | --- | --- | --- | --- | --- | --- | --- | --- | --- | --- | --- | --- | --- | --- | --- |
| COc1cc2c(cc1OCCCNC(=O)c1cc3ccccc3[nH]1)N=C[C@@H]1CCCN1C2=O | 0.445 µM (active) | 0.664 µM (active) | 0.296 µM (active) | 0.409 µM (active) | 0.352 µM (active) | 0.23 µM (active) | 0.391 µM (active) | 0.193 µM (active) | 2.04 µM (inactive) | 0.254 µM (active) | 0.318 µM (active) | 0.378 µM (active) | 0.0966 µM (active) | 7.43 µM (inactive) | 0.326 µM (active) | 0.195 µM (active) | 0.241 µM (active) | 0.305 µM (active) | – |
| CCNc1cc2oc(=O)cc(C(F)(F)F)c2cc1C | > 100 µM (inactive) | > 100 µM (inactive) | > 100 µM (inactive) | > 100 µM (inactive) | > 100 µM (inactive) | > 100 µM (inactive) | > 100 µM (inactive) | – | > 100 µM (inactive) | > 100 µM (inactive) | > 100 µM (inactive) | > 100 µM (inactive) | > 100 µM (inactive) | 64.4 µM (inactive) | > 100 µM (inactive) | > 100 µM (inactive) | > 100 µM (inactive) | > 100 µM (inactive) | – |
| COc1ccccc1N1C(=O)C2C3c4ccccc4C(OC(C)=O)(c4ccccc43)C2C1=O (stereo not drawn) | 17.1 µM (inactive) | > 100 µM (inactive) | > 100 µM (inactive) | > 100 µM (inactive) | > 100 µM (inactive) | 14.8 µM (inactive) | > 100 µM (inactive) | > 100 µM (inactive) | > 100 µM (inactive) | > 100 µM (inactive) | > 100 µM (inactive) | > 100 µM (inactive) | > 100 µM (inactive) | – | 97.9 µM (inactive) | > 100 µM (inactive) | 77.4 µM (inactive) | > 100 µM (inactive) | 33.8 µM (inactive) |
| COCCOCCOCCC(=O)NC1CC2CCC1(C)C2(C)C (stereo not drawn) | > 100 µM (inactive) | > 100 µM (inactive) | > 100 µM (inactive) | > 100 µM (inactive) | > 100 µM (inactive) | > 100 µM (inactive) | > 100 µM (inactive) | > 100 µM (inactive) | > 100 µM (inactive) | > 100 µM (inactive) | > 100 µM (inactive) | > 100 µM (inactive) | > 100 µM (inactive) | – | > 100 µM (inactive) | > 100 µM (inactive) | > 100 µM (inactive) | > 100 µM (inactive) | > 100 µM (inactive) |
| COC(=O)c1cc(C)n(CN(Cc2ccccc2)Cn2nc(C(=O)OC)cc2C)n1 | > 100 µM (inactive) | – | > 52.7 µM (inactive) | > 100 µM (inactive) | > 82.2 µM (inactive) | > 100 µM (inactive) | > 46.9 µM (inactive) | 17.1 µM (inactive) | > 100 µM (inactive) | > 92.5 µM (inactive) | > 46.1 µM (inactive) | > 46.9 µM (inactive) | > 53.7 µM (inactive) | > 73.5 µM (inactive) | > 100 µM (inactive) | 99.1 µM (inactive) | > 100 µM (inactive) | > 100 µM (inactive) | > 100 µM (inactive) |
| Cn1c(=O)c2nc(CCS)[nH]c2n(C)c1=O | > 100 µM (inactive) | – | > 100 µM (inactive) | > 100 µM (inactive) | > 100 µM (inactive) | 31.4 µM (inactive) | > 100 µM (inactive) | 55 µM (inactive) | > 100 µM (inactive) | > 100 µM (inactive) | > 100 µM (inactive) | > 100 µM (inactive) | 90.6 µM (inactive) | > 100 µM (inactive) | 54.3 µM (inactive) | > 100 µM (inactive) | > 100 µM (inactive) | > 100 µM (inactive) | > 100 µM (inactive) |
| COc1ccc2nc3n(c2c1)C(c1c(F)cccc1F)SC3 (stereo not drawn) | 20.8 µM (inactive) | 78 µM (inactive) | 25.7 µM (inactive) | > 100 µM (inactive) | > 100 µM (inactive) | 22.3 µM (inactive) | > 100 µM (inactive) | 54.1 µM (inactive) | 19.1 µM (inactive) | 61.4 µM (inactive) | 51.9 µM (inactive) | 64.6 µM (inactive) | > 100 µM (inactive) | 51.1 µM (inactive) | 61.7 µM (inactive) | 33.2 µM (inactive) | 40.2 µM (inactive) | > 100 µM (inactive) | – |
| COc1cc(S(=O)(=O)N/N=C/C=C/c2ccccc2)c(OC)cc1NC(C)=O | > 100 µM (inactive) | – | 9.62 µM (inactive) | 51.9 µM (inactive) | 38.6 µM (inactive) | 26.4 µM (inactive) | 17.7 µM (inactive) | 69.5 µM (inactive) | 9.59 µM (inactive) | 78.9 µM (inactive) | 42.9 µM (inactive) | 25.4 µM (inactive) | 21.1 µM (inactive) | 30.3 µM (inactive) | > 100 µM (inactive) | 3.73 µM (inactive) | 42.3 µM (inactive) | 21.9 µM (inactive) | 35.6 µM (inactive) |
